In the NIST ThermoML archive (doi:10.1021/je600562n):
Several values for one entry are separate records, joined by “and”; a condition that tells them apart may be missing. Identical values can stand only once.

Settings: Liquid; for mass density: Vibrating tube method; for viscosity: Vibrating wire viscometry

CC(C)CCCCCCCOC(=O)c1ccccc1C(=O)OCCCCCCCC(C)C
Settings	mass density	viscosity
298.15 K, 101.33 kPa	963.81 kg/m3 [middle of 7 runs]	87.2 mPa·s and 87.5 mPa·s and 87.3 mPa·s
298.15 K, 5000 kPa	962.8 kg/m3	–
298.15 K, 10000 kPa	965.6 kg/m3	107.3 mPa·s
298.15 K, 20000 kPa	970.8 kg/m3	–
298.15 K, 30000 kPa	976 kg/m3	–
298.15 K, 50000 kPa	985.5 kg/m3	–
298.15 K, 70000 kPa	995.2 kg/m3	–
303.15 K, 101.33 kPa	–	64.6 mPa·s
303.15 K, 10000 kPa	–	78.5 mPa·s
303.15 K, 20000 kPa	–	98 mPa·s
303.15 K, 30000 kPa	–	120.9 mPa·s
308.15 K, 101.33 kPa	–	48.99 mPa·s
308.15 K, 10000 kPa	–	60.3 mPa·s
308.15 K, 20000 kPa	–	73.1 mPa·s
308.15 K, 30000 kPa	–	89 mPa·s
308.15 K, 50000 kPa	–	135.4 mPa·s
313.15 K, 101.33 kPa	–	37.74 mPa·s
313.15 K, 10000 kPa	–	46.5 mPa·s
313.15 K, 20000 kPa	–	57 mPa·s
313.15 K, 30000 kPa	–	68.1 mPa·s
313.15 K, 50000 kPa	–	100.1 mPa·s
323.15 K, 101.33 kPa	945.64 kg/m3 [middle of 7 runs]	23.85 mPa·s and 23.84 mPa·s
323.15 K, 5000 kPa	945.4 kg/m3	–
323.15 K, 10000 kPa	948.5 kg/m3	29.24 mPa·s
323.15 K, 20000 kPa	954.6 kg/m3	35.63 mPa·s
323.15 K, 30000 kPa	960.4 kg/m3	42.46 mPa·s
323.15 K, 50000 kPa	970.7 kg/m3	60.4 mPa·s
323.15 K, 70000 kPa	980.1 kg/m3	80.6 mPa·s
348.15 K, 101.33 kPa	927.68 kg/m3 [middle of 7 runs]	9.71 mPa·s and 9.72 mPa·s and 9.71 mPa·s
348.15 K, 5000 kPa	927.9 kg/m3	–
348.15 K, 10000 kPa	931.3 kg/m3	11.55 mPa·s
348.15 K, 20000 kPa	938 kg/m3	13.81 mPa·s
348.15 K, 30000 kPa	944.1 kg/m3	15.93 mPa·s
348.15 K, 50000 kPa	955.3 kg/m3	21.5 mPa·s
348.15 K, 70000 kPa	965.7 kg/m3	28.86 mPa·s
363.15 K, 101.33 kPa	917.07 kg/m3 [middle of 6 runs]	6.39 mPa·s
373.15 K, 101.33 kPa	907 kg/m3	5.03 mPa·s
373.15 K, 5000 kPa	911.1 kg/m3	–
373.15 K, 10000 kPa	914.8 kg/m3	5.92 mPa·s
373.15 K, 20000 kPa	922.1 kg/m3	6.96 mPa·s
373.15 K, 30000 kPa	929 kg/m3	7.84 mPa·s
373.15 K, 50000 kPa	941 kg/m3	10.33 mPa·s
373.15 K, 70000 kPa	952.1 kg/m3	13.45 mPa·s
398.15 K, 101.33 kPa	–	3.043 mPa·s
398.15 K, 5000 kPa	893.4 kg/m3	–
398.15 K, 10000 kPa	898.8 kg/m3	3.601 mPa·s
398.15 K, 20000 kPa	906.6 kg/m3	4.12 mPa·s
398.15 K, 30000 kPa	913.5 kg/m3	4.741 mPa·s
398.15 K, 50000 kPa	926 kg/m3	5.98 mPa·s
398.15 K, 70000 kPa	938.9 kg/m3	7.64 mPa·s
423.15 K, 101.33 kPa	–	2.052 mPa·s
423.15 K, 5000 kPa	877.5 kg/m3	–
423.15 K, 10000 kPa	881.6 kg/m3	2.401 mPa·s
423.15 K, 20000 kPa	890.4 kg/m3	2.707 mPa·s
423.15 K, 30000 kPa	898.6 kg/m3	3.001 mPa·s
423.15 K, 50000 kPa	912.6 kg/m3	3.857 mPa·s
423.15 K, 70000 kPa	926.7 kg/m3	4.826 mPa·s
